According to patent publication US20100249383A1, “Novel Ligand Involved In The Transmigration Of Leukocytes Across the Endothelium and Uses Therefor” (The Regents of The University of California and The Burnham …, priority 2001, published 2010):

B1: annexin I: human annexin I, from neutrophil lysates or recombinant full length from E. coli (protein, UniProt P04083 2-346, looked up)
Annexin A1: AMVSEFLKQAWFIENEEQEYVQTVKSSKGGPGSAVSPYPTFNPSSDVAALHKAIMVKGVDEATIIDILTKRNNAQRQQIKAAYLQETGKPLDETLKKALTGHLEEVVLALLKTPAQFDADELRAAMKGLGTDEDTLIEILASRTNKEIRDINRVYREELKRDLAKDITSDTSGDFRNALLSLAKGDRSEDFGVNEDLADSDARALYEAGERRKGTDVNVFNTILTTRSYPQLRRVFQKYTKYSKHDMNKVLDLELKGDIEKCLTAIVKCATSKPAFFAEKLHQAMKGVGTRHKALIRIMVSRSEIDMNDIKAFYQKMYGISLCQAILDETKGDYEKILVALCGGN

These molecules were tested on mAbGB3.1 (assay: Inhibition ELISA of mAbGB3.1 binding to bovine lung proteins / immobilized BSA neoglycoproteins). Conditions: at 1 to 5 mM.
Design: species or system mouse
Protocol: Binding in the absence of inhibitor was defined as 100%. […] Binding at pH 7.0 was defined as 100% for each. […] Binding in the absence of inhibitor was defined as 100%.
In these ELISAs, 96-well plates were coated with 250 ng of BSA neoglycoproteins at incubated either for 6 h at room temperature, or 4 h at 37° C. Plates were washed and blocked with 3% BSA in PBS overnight, incubated with hybridoma culture supernatants or with purified IgG diluted in PBS containing 1% BSA and 0.05% Tween 20. Incubations were for 1-2 h at room temperature, or overnight at 4° C. The plates were then washed and incubated with alkaline phosphatase conjugated goat anti-mouse IgG, followed by development with p-nitrophenyl phosphate substrate. Absorbance was measured at 405 nm in an ELISA plate reader.
Briefly, 96-well plates were coated with 50 ng of bovine albumin (BSA) neoglycoproteins containing total bovine lung glycopeptides coupled to BSA using glutaraldehyde for 4 h at 37° C. The neoglycoproteins were prepared for immunization screening as described above.
Plates were washed and blocked with 3% BSA in phosphate-buffered saline (PBS) overnight at 4° C. […] The plates were then washed and incubated with alkaline phosphatase conjugated goat anti-mouse IgG, followed by development with p-nitrophenyl phosphate substrate. Absorbance was measured at 405 nm in an ELISA plate reader.

| Molecule | inhibition of mAbGB3.1 binding by glycosaminoglycan-like compounds |
| --- | --- |
| N[C@H]1C(O)O[C@H](CO)[C@H](O)[C@@H]1O (stereo partly shown) [Chondrosarnine, chondrosamine] | do not inhibit binding |
| chondroitin sulfate | do not inhibit binding |
| hyaluronic acid [hyaluronic acid (tetramer and octamer)] | do not inhibit binding |

Same assay, conditions: low mM concentrations, pH 7.5; FIG. 2 Panel C

| Molecule | inhibition of mAbGB3.1 reactivity by carboxylic acids |
| --- | --- |
| O=C(O)CN(CCN(CC(=O)O)CC(=O)O)CC(=O)O [EDTA, ethylenediamine tetraacetic acid] | inhibited |
| CC(=O)O [acetate] | inhibited |
| O=C(O)CC(O)(CC(=O)O)C(=O)O [citrate] | inhibited |
| O=C[C@H](O)[C@@H](O)[C@@H](O)[C@H](O)C(=O)O [galacturonic acid] | did not inhibit binding |
| O=C[C@H](O)[C@@H](O)[C@H](O)[C@H](O)C(=O)O [glucuronic acid] | did not inhibit binding |
| CC(O)C(=O)O (stereo not shown) [lactic acid] | did not inhibit binding |
| CC(=O)C(=O)O [pyruvic acid] | did not inhibit binding |
| O=C(O)CCC(=O)O [succinate] | inhibited |

Same assay, conditions: sulfated or phosphorylated sugars tested at or below 5 mM; data not shown

| Molecule | effect on mAbGB3.1 reactivity in the ELISA assay |
| --- | --- |
| O=C[C@H](O)[C@@H](O)[C@@H](O)[C@H](O)COP(=O)(O)O [Gal-6-phosphate, galactose-6-phosphate] | unaffected |
| O=C[C@H](O)[C@@H](O)[C@@H](O)[C@H](O)COS(=O)(=O)O [Gal-6-sulfate, galactose-6-sulfate] | unaffected |
| O=P(O)(O)O[C@H]1O[C@H](CO)[C@@H](O)[C@H](O)[C@H]1O [Glc-1-phosphate, glucose-1-phosphate] | unaffected |
| O=C[C@H](O)[C@@H](O)[C@H](O)[C@H](O)COP(=O)(O)O [Glc-6-phosphate, glucose-6-phosphate] | unaffected |
| O=C[C@H](O)[C@@H](O)[C@H](O)[C@H](O)COS(=O)(=O)O [Glc-6-sulfate, glucose-6-sulfate] | unaffected |
| CC(=O)N[C@H]1C(OP(=O)(O)O)O[C@H](CO)[C@@H](O)[C@@H]1O (stereo partly shown) [GlcNAc-1-phosphate, glucose-N-acetyl-1-phosphate] | unaffected |
| CC(=O)N[C@H]1C(O)O[C@H](COP(=O)(O)O)[C@@H](O)[C@@H]1O (stereo partly shown) [GlcNAc-6-phosphate, glucose-N-acetyl-6-phosphate] | unaffected |
| O=C[C@@H](O)[C@@H](O)[C@H](O)[C@H](O)COP(=O)(O)O [Man-6-phosphate, mannose-6-phosphate] | unaffected |

Each molecule was assayed on [2-^3H]mannose-labeled CPAE glycoproteins (assay: Precipitation of mannose-labeled glycoproteins and cross-binding). Conditions: primary binding.
Design: species or system bovine
Protocol: Calf pulmonary artery endothelial cells (CPAE) cells were labeled with [2-^3H] mannose at 20 μCi/ml for 24 h in alpha MEM containing 10% fetal bovine serum. Cells were harvested by trypsinization, washed thrice in PBS, and lysed in PBS containing protease inhibitors and 0.5% NP40. Protein-rich lysates were prepared by ultrafiltration on YM10 membranes. Purified S100A8/A9 or annexin I proteins were immobilized on Affigel-10, and mixed with the labeled glycoproteins from CPAE cells in 10 mM HEPES buffer pH 7.5 containing 150 mM NaCl, 5 mM KCl, 1.2 mM MgCl2 and 1.3 mM CaCl2 after preclearing the lysates with BSA-Affigel 10. For immunoprecipitations using mAbGB3.1, lysates were precleared with normal mouse IgG-protein G beads and then incubated with Protein G coupled to mAbGB3.1 IgG in PBS. After overnight incubation at 4° C., the individual pellets were washed free of all unbound label until no more counts appeared in the washes, and the radioactivity associated with the pellets was measured.
For cross-binding, label associated with each pellet was first eluted using high salt (5 M MgCl2, which eluted >70% bound label). The eluates were repeatedly desalted on YM10 membranes and resuspended in the respective buffers. Label eluted from mAbGB3.1 gels was mixed with immobilized S100A8/A9 or annexin I and vice versa. Again, after overnight incubation at 4° C., the individual pellets were washed free of all unbound label and counted. […] In comparison, immobilized annexin I precipitated only about 2-3% of mannose labeled glycoproteins from endothelial cells (data not shown).

| Molecule | % Bound Radioactivity (mean ± SD) |
| --- | --- |
| B1 | 2-3% |

The molecules below were run on 0.3 M asialo-COO^− glycopeptide-BSA neoglycoproteins (assay: ELISA binding of purified proteins to immobilized carboxylated bovine lung glycans). Conditions: FIG. 19 or data not shown.
Protocol: In additional ELISA experiments, 96-well plates were coated with 0.3 M asialo-COO^− glycopeptide-BSA neoglycoproteins (250 ng/well) for 4 h at 37° C. (control wells had BSA alone) and blocked with 3% BSA in PBS overnight. The wells were then incubated with purified human annexin I or S100A8/A9 complexes (as appropriate), in 10 mM HUES buffer pH 7.5 containing 150 mM NaCl, 5 mM KCl, 1.2 mM MgCl2 and 1.3 mM CaCl2, in the absence or presence of varying concentrations of 0.3 M asialo-COO^− glycopeptides or 0.3 M asialo-CONHMe-glycopeptides for 2 h at room temperature. This was followed by incubation with anti-bovine annexin I antibody or anti-human S100A8 or anti-S100A9 for 2 h at room temperature. Wells were then washed and incubated with alkaline phosphatase conjugated goat anti-mouse IgG, followed by development with p-nitrophenyl phosphate substrate.
In this Example, experiments conducted to assess amphoterin binding to COO^− glycopeptide coated plates was assayed as described earlier for annexin I and S100 proteins. In addition, bound protein was detected using anti-amphoterin. mAbGB3.1 binding to sRAGE was assessed by first coating sRAGE on microtiter wells for 4 h at 37° C. After blocking with 3% BSA in PBS overnight, wells were incubated with mAbGB3.1 in the presence and absence of COO^−or CONHMe-glycopeptide and developed as described above.

| Molecule | binding to immobilized carboxylated vs neutralized glycans |
| --- | --- |
| S100A1: other S100 protein | remained constant |
| S100A8: recombinant S100A8 alone | does not show specific binding |
| S100B: other S100 protein | remained constant |
| B1 | bound |

These molecules were tested on BSA coupled 0.3 M asialo-COO^− lung glycopeptides (assay: Depletion of annexin I and S100 proteins from human neutrophil lysates by immobilized bovine lung glycopeptides). Conditions: immunoblot of supernatants; FIG. 15, FIG. 16.
Format: binding
Protocol: In these assays, extracts from activated human neutrophils were first incubated with immobilized asialo-COO^− glycopeptides, and the residual proteins in the supernatants were analyzed by immunoblots. Since the S100A8/A9 complexes are typically destroyed during SDS-PAGE (i.e., break down into monomers), the intensity of staining in immunoblots was beyond the linearity of reaction for any quantitative evaluation.
In these experiments, 96-well plates were coated with 250 ng of BSA coupled 0.3 M asialo-COO^− lung glycopeptides for 4 h at 37° C. and blocked with 3% BSA in PBS overnight. Human neutrophil extracts were sequentially incubated in each of four wells for 30 min/well at 37° C. in leukocyte activation buffer (described above), in presence or absence of 200 μM 0.3 M asialo-COO^− glycopeptides or asialo-CONHMe-glycopeptides. After incubation, the supernatants from the incubation wells were collected and protein depletion was analyzed by immunoblotting using the respective antibodies. For detection of S100A8/A9 complexes, the proteins in the supernatants were stabilized by chemical cross-linking using bis-sulfosuccinimidyl suberate (BS^3) as known in the art (See, Staros, Biochem., 21:3590 [1982]). Briefly, the cross linker was added from a fresh 2 mM stock solution to neutrophil lysates obtained as described above, to a final concentration of 200 μM, and the mixture was incubated at room temperature for 30 min. Reactions were quenched by the addition of 1 M Tris to a final concentration of 10 mM and samples were stored at −80° C., until they were assayed. Cross-linked samples were incubated with 2-mercaptoethanol prior to separation on SDS-PAGE. Since crude lysates were used in the cross-linking, it is conceivable that non-specific cross-linking could occur. Therefore, only the bands that were still strongly stained with increasing dilution of both anti-S100A8 and anti-S100A9 were identified.

| Molecule | depletion from neutrophil extracts after binding to the glycopeptides |
| --- | --- |
| S100A8 homodimer: cross-linked S100A8 homodimer from human neutrophil extracts | depleted |
| S100A8/A9 heterodimer: S100A8•S100A9 heterodimer from human neutrophil extracts | depleted |
| S100A8/A9 heterotrimer: (S100A8)2•S100A9 heterotrimer from human neutrophil extracts | depleted |

Same assay, conditions: intact (37 kDa) protein; FIG. 16 lane 2

| Molecule | depletion from the neutrophil preparations after binding to carboxylate-enriched glycopeptides [%] |
| --- | --- |
| B1 | > 90 |
